target: T1, ATM (Homo sapiens, UniProt Q13315); test: ATM inhibition test (phosphorylation of Chk2 generated by ionizing radiation, AlphaScreen SureFire); format: cell-based; conditions: phosphorylated Chk2 in NCI-H460 cells, ionizing radiation 8Gy, 1 hour after test compound treatment; read-out: ATM inhibitory activity
T1 construct: detecting phosphorylation of Chk2 in a human non-small cell lung cancer cell line NCI-H460 (ATCC company); host or cells: NCI-H460 human non-small cell lung cancer cells
In short: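 Human NCI-H460 lung cancer cells were treated with compound for 1 h, then irradiated at 8Gy and incubated 1 h at 37° C. Phospho-Chk2 was quantified by AlphaScreen SureFire; inhibition % was normalised between irradiated untreated and non-irradiated untreated wells.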

T1 sequence (Q13315 whole entry): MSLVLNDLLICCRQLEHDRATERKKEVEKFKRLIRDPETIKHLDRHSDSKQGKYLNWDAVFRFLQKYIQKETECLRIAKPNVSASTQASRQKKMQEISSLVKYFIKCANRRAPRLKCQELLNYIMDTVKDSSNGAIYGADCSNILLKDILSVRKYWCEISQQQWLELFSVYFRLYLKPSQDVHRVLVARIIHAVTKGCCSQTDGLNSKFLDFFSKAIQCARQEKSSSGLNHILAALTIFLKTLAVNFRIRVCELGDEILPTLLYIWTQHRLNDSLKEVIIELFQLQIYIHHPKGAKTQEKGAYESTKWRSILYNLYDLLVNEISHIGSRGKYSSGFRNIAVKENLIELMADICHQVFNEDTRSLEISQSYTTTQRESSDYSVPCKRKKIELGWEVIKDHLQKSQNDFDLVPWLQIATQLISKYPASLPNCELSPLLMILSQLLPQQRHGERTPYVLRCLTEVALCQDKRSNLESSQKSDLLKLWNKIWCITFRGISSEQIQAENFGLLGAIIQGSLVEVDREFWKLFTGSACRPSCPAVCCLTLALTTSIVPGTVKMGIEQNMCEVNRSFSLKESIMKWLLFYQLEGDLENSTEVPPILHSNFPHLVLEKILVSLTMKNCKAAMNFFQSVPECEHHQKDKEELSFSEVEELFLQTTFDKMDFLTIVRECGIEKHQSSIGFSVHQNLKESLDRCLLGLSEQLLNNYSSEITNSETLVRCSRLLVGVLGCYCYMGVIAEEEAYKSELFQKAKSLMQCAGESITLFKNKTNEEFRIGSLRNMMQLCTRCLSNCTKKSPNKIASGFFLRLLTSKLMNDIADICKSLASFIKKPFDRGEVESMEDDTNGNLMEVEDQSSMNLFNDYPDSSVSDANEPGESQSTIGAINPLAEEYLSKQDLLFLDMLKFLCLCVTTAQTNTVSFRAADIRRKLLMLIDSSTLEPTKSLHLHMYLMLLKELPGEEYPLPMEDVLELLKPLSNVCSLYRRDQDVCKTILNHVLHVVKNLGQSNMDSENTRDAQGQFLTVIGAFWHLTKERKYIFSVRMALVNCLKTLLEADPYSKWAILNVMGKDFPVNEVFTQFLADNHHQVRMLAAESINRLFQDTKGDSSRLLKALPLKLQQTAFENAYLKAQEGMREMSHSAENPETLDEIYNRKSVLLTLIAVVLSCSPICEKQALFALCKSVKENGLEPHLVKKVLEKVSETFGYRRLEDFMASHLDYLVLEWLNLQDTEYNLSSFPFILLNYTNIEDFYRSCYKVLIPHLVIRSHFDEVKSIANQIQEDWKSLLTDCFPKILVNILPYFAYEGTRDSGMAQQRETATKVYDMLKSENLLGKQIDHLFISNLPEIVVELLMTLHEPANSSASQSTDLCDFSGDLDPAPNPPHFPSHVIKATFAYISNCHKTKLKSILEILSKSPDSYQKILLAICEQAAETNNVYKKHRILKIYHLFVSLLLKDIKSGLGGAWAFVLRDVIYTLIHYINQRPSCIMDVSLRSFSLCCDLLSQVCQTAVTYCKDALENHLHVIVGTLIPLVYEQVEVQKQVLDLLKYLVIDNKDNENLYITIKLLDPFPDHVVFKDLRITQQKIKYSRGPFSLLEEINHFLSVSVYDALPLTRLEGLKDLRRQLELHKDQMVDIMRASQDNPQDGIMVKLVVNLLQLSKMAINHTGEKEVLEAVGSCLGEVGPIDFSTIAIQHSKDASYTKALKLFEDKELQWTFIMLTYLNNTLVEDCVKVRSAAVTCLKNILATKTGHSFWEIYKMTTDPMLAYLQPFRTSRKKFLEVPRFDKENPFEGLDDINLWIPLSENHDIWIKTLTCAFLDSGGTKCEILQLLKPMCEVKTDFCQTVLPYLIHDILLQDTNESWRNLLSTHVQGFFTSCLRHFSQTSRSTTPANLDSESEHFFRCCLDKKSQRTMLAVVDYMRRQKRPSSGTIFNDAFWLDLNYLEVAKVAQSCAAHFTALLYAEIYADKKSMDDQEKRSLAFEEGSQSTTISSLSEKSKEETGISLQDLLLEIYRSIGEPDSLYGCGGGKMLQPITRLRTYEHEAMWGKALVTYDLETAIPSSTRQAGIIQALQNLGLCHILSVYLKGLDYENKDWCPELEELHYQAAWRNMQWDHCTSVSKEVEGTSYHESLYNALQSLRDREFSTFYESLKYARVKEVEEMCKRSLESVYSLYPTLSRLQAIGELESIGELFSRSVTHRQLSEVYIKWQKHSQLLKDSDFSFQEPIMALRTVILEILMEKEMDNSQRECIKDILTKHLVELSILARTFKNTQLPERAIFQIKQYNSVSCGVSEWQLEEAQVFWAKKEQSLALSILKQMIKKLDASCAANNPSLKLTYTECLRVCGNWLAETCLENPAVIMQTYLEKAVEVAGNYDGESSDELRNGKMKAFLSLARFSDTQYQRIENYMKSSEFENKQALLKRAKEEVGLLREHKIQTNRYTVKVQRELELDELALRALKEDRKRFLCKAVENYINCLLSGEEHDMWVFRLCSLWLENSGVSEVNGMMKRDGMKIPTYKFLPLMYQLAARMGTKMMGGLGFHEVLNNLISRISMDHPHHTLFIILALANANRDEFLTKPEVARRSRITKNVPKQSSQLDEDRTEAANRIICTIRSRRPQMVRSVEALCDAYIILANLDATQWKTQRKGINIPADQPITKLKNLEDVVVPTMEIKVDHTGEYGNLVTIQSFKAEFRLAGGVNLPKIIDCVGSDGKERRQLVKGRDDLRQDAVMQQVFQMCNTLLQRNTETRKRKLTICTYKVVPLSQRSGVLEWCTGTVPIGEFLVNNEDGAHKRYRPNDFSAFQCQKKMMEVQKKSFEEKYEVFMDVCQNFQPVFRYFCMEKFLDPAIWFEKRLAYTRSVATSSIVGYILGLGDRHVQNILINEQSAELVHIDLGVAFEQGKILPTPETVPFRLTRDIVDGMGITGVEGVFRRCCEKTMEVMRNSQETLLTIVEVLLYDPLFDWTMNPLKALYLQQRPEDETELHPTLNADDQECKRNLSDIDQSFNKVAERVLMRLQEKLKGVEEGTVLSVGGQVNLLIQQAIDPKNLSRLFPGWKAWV

Row | SMILES | IC50 [nM]
1 | CC(C)Oc1cncc(CNc2ccc3c(c2)Cc2cccc(-c4cc(N5CCOCC5)cc(=O)[nH]4)c2O3)c1 [Example 2-2-65, 6-(7-(((5-Isopropoxypyridin-3-yl)methyl)amino)-9H-xanthen-4-yl)-4-morpholino pyridin-2(1H)-one] | 100 to 500
2 | COc1ccc(CN2CCC(Nc3ccc4c(c3)Cc3cccc(-c5cc(N6CCOCC6)cc(=O)[nH]5)c3O4)CC2)cn1 [Example 2-28-6, 6-(7-((1-((6-Methoxypyridin-3-yl)methyl)piperidin-4-yl)amino)-9H-xanthen-4-yl)-4-morpholino pyridin-2(1H)-one] | 100 to 500
3 | CC(CN1CC2(COC2)C1)Nc1ccc2c(c1)Sc1cccc(-c3cc(N4CCOCC4)cc(=O)[nH]3)c1S2 (stereo not drawn) [Example 1-43-2, 6-(7-((1-(2-Oxa-6-azaspiro [3.3]heptan-6-yl)propan-2-yl)amino)thianthren-1-yl)-4-morpholino pyridin-2(1H)-one] | 100 to 500
4 | O=c1cc(N2CCOCC2)cc(-c2cccc3c2Oc2ccc(N[C@H]4CCN(Cc5ccccc5)C[C@@H]4O)cc2C3)[nH]1 (relative stereo) [Example 2-33, 6-(7-((trans-1-benzyl-3-hydroxypiperidin-4-yl)amino)-9H-xanthen-4-yl)-4-morpholinopyridin-2(1H)-one] | 100 to 500
5 | CCN(CC)CC(Nc1ccc2c(c1)Sc1cccc(-c3cc(N4CCOCC4)cc(=O)[nH]3)c1S2)c1cnc(C)cn1 (stereo not drawn) [Example 1-33, 6-(7-((2-(diethylamino)-1-(5-methylpyrazin-2-yl)ethyl)amino)thianthren-1-yl)-4-morpholinopyridin-2(1H)-one] | 100 to 500
6 | O=c1cc(N2CCOCC2)cc(-c2cccc3c2Oc2ccc(NC4CCN(Cc5ccco5)CC4)cc2C3)[nH]1 [Example 2-28-27, 6-(7-((1-(Furan-2-ylmethyl)piperidin-4-yl)amino)-9H-xanthen-4-yl)-4-morpholino pyridin-2(1H)-one] | 100 to 500
7 | COc1cccc(CNc2ccc3c(c2)Cc2ccnc(-c4cc(N5CCOCC5)cc(=O)[nH]4)c2O3)n1 [Example 2-42-7, 6-(7-(((6-Methoxypyridin-2-yl)methyl)amino)-5H-chromeno[2,3-c]pyridin-1-yl)-4-morpholinopyridin-2(1H)-one] | 500 to 2000
8 | O=c1cc(N2CCOCC2)cc(-c2cccc3c2Oc2ccc(NC4CCN(CCc5ccccn5)CC4)cc2C3)[nH]1 [Example 2-30-3, 4-Morpholino-6-(7-((1-(2-(pyridin-2-yl)ethyl)piperidin-4-yl)amino)-9H-xanthen-4-yl)pyridin-2(1H)-one] | 500 to 2000
9 | O=c1cc(N2CCOCC2)cc(-c2cccc3c2Sc2ccc(NCc4nccs4)cc2S3)[nH]1 [Example 1-12-52, 4-Morpholino-6-(7-((thiazol-2-ylmethyl)amino)thianthren-1-yl) pyridin-2 (1H)-one] | 100 to 500
10 | COc1ccc(CNc2ccc3c(c2)Cc2cccc(-c4cc(N5CCOCC5)cc(=O)[nH]4)c2O3)cc1 [Example 2-40, 6-(7-((4-methoxybenzyl)amino)-9H-xanthen-4-yl)-4-morpholinopyridin-2(1H)-one] | 100 to 500
11 | Cc1ccnc(CN2CCC(Nc3ccc4c(c3)Cc3cccc(-c5cc(N6CCOCC6)cc(=O)[nH]5)c3O4)CC2)c1 [Example 2-28-19, 6-(7-((1-((4-Methylpyridin-2-yl)methyl)piperidin-4-yl)amino)-9H-xanthen-4-yl)-4-morpholino pyridin-2(1H)-one] | 100 to 500
12 | O=C(Nc1ncc(CNc2ccc3c(c2)Sc2cccc(-c4cc(N5CCOCC5)cc(=O)[nH]4)c2S3)cn1)N1CCCC1 [Example 1-12-48, N-(5-(((6-(4-Morpholino-6-oxo-1,6-dihydropyridin-2-yl)thianthren-2-yl)amino)methyl)pyrimidin-2-yl)pyrrolidine-1-car-boxamide] | 100 to 500
13 | CC(Nc1ccc2c(c1)Cc1cccc(-c3cc(N4CCOCC4)cc(=O)[nH]3)c1O2)c1cnc(N(C)C)cn1 (stereo not drawn) [Example 2-14-53, 6-(7-((1-(5-(Dimethylamino)pyrazin-2-yl)ethyl)amino)-9H-xanthen-4-yl)-4-morpholino pyridin-2(1H)-one] | 100 to 500
14 | CC(C)(C)OC(=O)N1CCC(C#N)(Nc2ccc3c(c2)Cc2cccc(-c4cc(N5CCOCC5)cc(=O)[nH]4)c2O3)CC1 [Example 2-26, tert-butyl 4-cyano-4-((5-(4-morpholino-6-oxo-1,6-dihydropyridin-2-yl)-9H-xanthen-2-yl)amino)piperidine-1-carboxylate] | 500 to 2000
15 | O=c1cc(N2CCOCC2)cc(-c2cccc3c2Sc2ccc(NCCCN4CCOCC4)cc2S3)[nH]1 [Example 1-9-3, 4-Morpholino-6-(7-((3-morpholinopropyl)amino)thianthren-1-yl)pyridin-2(1H)-one] | < 100
16 | COc1cc(CNc2ccc3c(c2)Cc2ccnc(-c4cc(N5CCOCC5)cc(=O)[nH]4)c2O3)cnc1OC [Example 2-41-10, 6-(7-(((5,6-Dimethoxypyridin-3-yl)methyl)amino)-5H-chromeno[2,3-c]pyridin-1-yl)-4-morpholino pyridin-2(1H)-one] | 100 to 500
17 | COc1ccccc1CCN1CCC(Nc2ccc3c(c2)Cc2cccc(-c4cc(N5CCOCC5)cc(=O)[nH]4)c2O3)CC1 [Example 2-30-10, 6-(7-((1-(2-Methoxyphenethyl)piperidin-4-yl)amino)-9H-xanthen-4-yl)-4-morpholino pyridin-2(1H)-one] | 500 to 2000
18 | Cc1ccc(C(C[C@@H]2CCCN2C)Nc2ccc3c(c2)Sc2cccc(-c4cc(N5CCOCC5)cc(=O)[nH]4)c2S3)nc1 (single isomer, unassigned) [Example 12-2] | 100 to 500
19 | CN[C@@H](Cc1ccccc1)C(=O)Nc1ccc2c(c1)Sc1cccc(-c3cc(N4CCOCC4)cc(=O)[nH]3)c1S2 [Example 1-4, (S)-2-(methylamino)-N-(6-(4-morpholino-6-oxo-1,6-dihydropyridin-2-yl)thianthren-2-yl)-3-phenyl propanamide] | 100 to 500
20 | O=c1cc(N2CCOCC2)cc(-c2cccc3c2Oc2ccc(NC4CCN(CCc5ccc(Cl)cc5)CC4)cc2C3)[nH]1 [Example 2-30-6, 6-(7-((1-(4-Chlorophenethyl)piperidin-4-yl)amino)-9H-xanthen-4-yl)-4-morpholino pyridin-2 (1H)-one] | 500 to 2000
21 | COCC(CN1CCCCC1)Nc1ccc2c(c1)Sc1cccc(-c3cc(N4CCOCC4)cc(=O)[nH]3)c1S2 (stereo not drawn) [Example 1-17-2, 6-(7-((1-Methoxy-3-(piperidin-1-yl)propan-2-yl)amino)thianthren-1-yl)-4-morpholinopyridin-2(1H)-one] | 100 to 500
22 | Cc1ccnc(C(CO)Nc2ccc3c(c2)Cc2cccc(-c4cc(N5CCOCC5)cc(=O)[nH]4)c2O3)c1 (racemic) [Example 2-14-39, 6-(7-((2-Hydroxy-1-(4-methylpyridin-2-yl)ethyl)amino)-9H-xanthen-4-yl)-4-morpholino pyridin-2 (1H)-one] | 100 to 500
23 | CNCc1ccnc(C(C)Nc2ccc3c(c2)Sc2cccc(-c4cc(N5CCOCC5)cc(=O)[nH]4)c2S3)n1 (stereo not drawn) [Example 1-20-1, 6-(7-((1-(4-((methylamino)methyl)pyrimidin-2-yl)ethyl)amino)thianthren-1-yl)-4-morpholinopyridin-2(1H)-one] | 100 to 500
24 | Cc1ccc(C(Nc2ccc3c(c2)Sc2cccc(-c4cc(N5CCOCC5)cc(=O)[nH]4)c2S3)C2CCCCC2)nc1 (stereo not drawn) [Example 1-12-126, 6-(7-((Cyclohexyl(5-methylpyridin-2-yl)methyl)amino)thianthren-1-yl)-4-morpholino pyridin-2(1H)-one] | 500 to 2000
